In patent US20140031217A1, “HERBICIDAL COMPOSITIONS COMPRISING 4-AMINO-3-CHLORO-5-FLUORO-6-(4-CHLORO-2-FLUORO-3-METHOXYPHENYL)PYRIDINE-2-CARBOXYLIC ACID OR A DERIVATIVE THEREOF AND AUXIN TRANSPORT INHIBITORS” (DOW AGROSCIENCES LLC, priority 2012, published 2014):

Columns and labels:
IPOHE = experiment: Postemergence foliar-applied greenhouse weed control, IPOHE; type: in vivo, Ipomoea hederacea Jacq.
Source text: Seeds or nutlets of the desired test plant species were planted in a soil matrix prepared by mixing a loam or sandy loam soil (e.g., 28.6 percent silt, 18.8 percent clay, and 52.6 percent sand, with a pH of about 5.8 and an organic matter content of about 1.8 percent) and calcareous grit in an 80 to 20 ratio. The soil matrix was contained in plastic pots with a volume of 1 quart and a surface area of 83.6 square centimeters (cm^2). When required to ensure good germination and healthy plants, a fungicide treatment and/or other chemical or physical treatment was applied. The plants were grown for 8-22 days in a greenhouse with an approximate 14 h photoperiod which was maintained at about 29° C. during the day and 26° C. during the night. Nutrients (Peters Excel® 15-5-15 5-Ca 2-Mg and iron chelate) were applied in the irrigation solution as needed and water was added on a regular basis. Supplemental lighting was provided with overhead metal halide 1000-Watt lamps as necessary. The plants were employed for testing when they reached the first through fourth true leaf stage.
Treatments consisted of the acid or esters of 4-amino-3-chloro-5-fluoro-6-(4-chloro-2-fluoro-3-methoxy-phenyl) pyridine-2-carboxylic acid (Compound A), each formulated as an SC (suspension concentrate), and various herbicidal components alone and in combination. Forms of compound A were applied on an acid equivalent basis.
Other herbicidal components were applied on an active ingredient basis and included auxin transport inhibiting (ATI) herbicides chlorflurenol (technical material), chlorflurenol-methyl (technical material), diflufenzopyr (technical material), diflufenzopyr sodium (technical material), flurenol-methyl (technical material) and naptalam (technical material).
Treatment requirements were calculated based upon the rates being tested, the concentration of active ingredient or acid equivalent in the formulation, and a 12 mL application volume at a rate of 187 L/ha.
For treatments comprised of formulated and technical compounds, weighed amounts of the technical materials were placed individually in 25 mL glass vials and dissolved in a volume of 97:3 v/v acetone/DMSO to obtain 12× stock solutions, and measured amounts of the formulated compounds were placed individually in 25 mL glass vials and diluted in a volume of 1.5% (v/v) crop oil concentrate or water to obtain 12× stock solutions. […] Application solutions were prepared by adding an appropriate amount of each stock solution (e.g., 1 mL) and diluted to the appropriate final concentrations with the addition of an appropriate amount of an aqueous mixture of 1.5% (v/v) crop oil concentrate so that the final spray solutions contained 1.25% (v/v) crop oil concentrate. When required, additional water and/or 97:3 v/v acetone/DMSO was added to individual application solutions so that the final acetone and DMSO concentrations of the application solutions being compared were 8.1% and 0.25%, respectively.
All stock solutions and applications solutions were visually inspected for compound compatibility prior to application. Spray solutions were applied to the plant material with an overhead Mandel track sprayer equipped with an 8002E nozzle calibrated to deliver 187 L/ha over an application area of 0.503 m^2 at a spray height of 18 to 20 inches (46 to 50 cm) above average plant canopy height. Control plants were sprayed in the same manner with the solvent blank.
The treated plants and control plants were placed in a greenhouse as described above and watered by sub-irrigation to prevent wash-off of the test compounds. After approximately 3 weeks, the condition of the test plants as compared with that of the untreated plants was determined visually and scored on a scale of 0 to 100 percent where 0 corresponds to no injury or growth inhibition and 100 corresponds to complete kill. […]

ECHCG = experiment: In-water applied (paddy) greenhouse weed control, ECHCG; type: in vivo, Echinochloa crusgalli (L.) Beauv.
Method: Weed seeds or nutlets of the desired test plant species were planted in puddled soil (mud) prepared by mixing a shredded, non-sterilized mineral soil (50.5 percent silt, 25.5 percent clay, and 24 percent sand, with a pH of about 7.6 and an organic matter content of about 2.9 percent) and water at a 1:1 volumetric ratio. The prepared mud was dispensed in 365 mL aliquots into 16-ounce (oz.) non-perforated plastic pots with a surface area of 86.59 square centimeters (cm^2) leaving a headspace of 3 centimeters (cm) in each pot. Mud was allowed to dry overnight prior to planting or transplanting. Rice seeds were planted in Sun Gro MetroMix® 306 planting mixture, which typically has a pH of 6.0 to 6.8 and an organic matter content of about 30 percent, in plastic plug trays. Seedlings at the second or third leaf stage of growth were transplanted into 840 mL of mud contained in 32-oz. non-perforated plastic pots with a surface area of 86.59 cm^2 4 days prior to herbicide application. The paddy was created by filling the headspace of the pots with 2.5 to 3 cm of water. When required to ensure good germination and healthy plants, a fungicide treatment and/or other chemical or physical treatment was applied. The plants were grown for 4-22 days in a greenhouse with an approximate 14 h photoperiod which was maintained at about 29′C during the day and 26° C. during the night. Nutrients were added as Osmocote® (19:6:12, N:P:K+minor nutrients) at 2 g per 16-oz. pot and 4 g per 960-mL 32-oz. pot. Water was added on a regular basis to maintain the paddy flood, and supplemental lighting was provided with overhead metal halide 1000-Watt lamps as necessary. The plants were employed for testing when they reached the second or third true leaf stage.
Treatments consisted of the acid or esters of 4-amino-3-chloro-5-fluoro-6-(4-chloro-2-fluoro-3-methoxy-phenyl)pyridine-2-carboxylic acid (compound A) each formulated as an SC and various herbicidal components alone and in combination. Forms of compound A were applied on an acid equivalent basis.
Other herbicidal components were applied on an active ingredient basis and included auxin transport inhibiting (ATI) herbicides chlorflurenol-methyl (technical material), chlorflurenol (technical material), diflufenzopyr (technical material), dilfufenzopyr sodium (technical material), flurenol-methyl (technical material,) and naptalam (technical material).
Treatment requirements for each compound or herbicidal component were calculated based upon the rates being tested, the concentration of active ingredient or acid equivalent in the formulation, an application volume of 2 mL per component per pot, and an application area of 86.59 cm^2 per pot.
For formulated compounds, a measured amount was placed in an individual 100 or 200 mL glass vial and was dissolved in a volume of 1.25% (v/v) Agri-Dex® crop oil concentrate to obtain application solutions.
For technical grade compounds, a weighed amount was placed in an individual 100 to 200 mL glass vial and was dissolved in a volume of acetone to obtain concentrated stock solutions. […] The concentrated stock solutions obtained were diluted with an equivalent volume of an aqueous mixture containing 2.5% (v/v) crop oil concentrate so that the final application solutions contained 1.25% (v/v) crop oil concentrate.
Applications were made by injecting with a pipetter appropriate amounts of the application solutions, individually and sequentially, into the aqueous layer of the paddy. Control plants were treated in the same manner with the solvent blank. Applications were made so that all treated plant material received the same concentrations of acetone and crop oil concentrate.
The treated plants and control plants were placed in a greenhouse as described above and water was added as needed to maintain a paddy flood. […]

| SMILES | Visual Weed Control (%) Obs (IPOHE; 20 DAA, 4.38 gae/ha) | Visual Weed Control (%) Obs (IPOHE; 20 DAA, 8.75 gae/ha) | Visual Weed Control (%) Obs (IPOHE; 20 DAA, 17.5 gae/ha) | Visual Weed Control (%) Obs (ECHCG; 20 DAA, 17.5 gae/ha) | Visual Weed Control (%) Obs (ECHCG; 20 DAA, 35 gae/ha) | Visual Weed Control (%) Obs (ECHCG; 22 DAA, 8.75 gae/ha) | Visual Weed Control (%) Obs (ECHCG; 22 DAA, 17.5 gae/ha) | Visual Weed Control (%) Obs (ECHCG; 22 DAA, 35 gae/ha) | Visual Weed Control (%) Obs (IPOHE; 21 DAA, 4.38 gae/ha) | Visual Weed Control (%) Obs (IPOHE; 21 DAA, 8.75 gae/ha) | Visual Weed Control (%) Obs (IPOHE; 21 DAA, 17.5 gae/ha) | Visual Weed Control (%) Obs (IPOHE; 22 DAA, 8 gae/ha) | Visual Weed Control (%) Obs (IPOHE; 22 DAA, 16 gae/ha) | Visual Weed Control (%) Obs (IPOHE; 22 DAA, 32 gae/ha) | Visual Weed Control (%) Obs (ECHCG; 19 DAA, 8 gae/ha) | Visual Weed Control (%) Obs (ECHCG; 19 DAA, 16 gae/ha) | Visual Weed Control (%) Obs (ECHCG; 19 DAA, 32 gae/ha) | Visual Weed Control (%) Obs (ECHCG; 20 DAA, 4.38 gae/ha) | Visual Weed Control (%) Obs (ECHCG; 22 DAA, 4.38 gae/ha) |
| --- | --- | --- | --- | --- | --- | --- | --- | --- | --- | --- | --- | --- | --- | --- | --- | --- | --- | --- | --- |
| COc1c(Cl)ccc(-c2nc(C(=O)O)c(Cl)c(N)c2F)c1F [Compound A Acid, 4-amino-3-chloro-6-(4-chloro-2-fluoro-3-methoxyphenyl)-5-fluoropyridine-2-carboxylic acid] | 20% | 20% | 50% | 50% | 95% | 0% | 15% | 15% | – | – | – | – | – | – | – | – | – | – | – |
| COc1c(Cl)ccc(-c2nc(C(=O)OCc3ccccc3)c(Cl)c(N)c2F)c1F [Compound A Benzyl Ester] | 10% | 15% | – | – | – | 25% | 60% | – | 10% | 10% | 25% | 0% | 25% | 50% | 30% | 20% | 40% | 40% | 10% |
